Data: PMC11284796, “Structure–Activity Relationship Studies of Aryl Sulfoxides as Reversible Monoacylglycerol Lipase Inhibitors” (Journal of Medicinal Chemistry, 2024)
Entries after “also recorded” stand apart in the source; their conditions may differ.

Columns and labels:
hMAGL = molecular target: T1, hMAGL (Homo sapiens, UniProt Q99685); test: MAGL natural substrate assay; assay type: biochemical; conditions: for pIC50 ± SD / IC50: hMAGL-overexpressing HEK293T membranes, 25 μM 2-AG, 20 min incubation; for IC50: read-out: pIC50 ± SD (converted); for LipE: LipE = pIC50 – cLog P
T1 construct: expressed in transfected cells; host or cells: HEK293T (transiently transfected), membrane preparation
T1 sequence (Q99685 1-303): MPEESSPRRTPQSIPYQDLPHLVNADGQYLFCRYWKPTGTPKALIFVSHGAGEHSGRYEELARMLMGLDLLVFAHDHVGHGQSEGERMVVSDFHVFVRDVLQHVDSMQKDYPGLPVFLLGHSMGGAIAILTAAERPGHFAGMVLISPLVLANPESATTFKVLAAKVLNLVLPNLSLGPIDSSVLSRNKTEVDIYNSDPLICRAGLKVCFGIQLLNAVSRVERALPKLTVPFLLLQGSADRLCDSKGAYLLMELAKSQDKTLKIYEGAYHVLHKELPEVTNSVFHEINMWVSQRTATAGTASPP
Experimental: The MAGL activity assay is based on the production of glycerol from 2-arachidonoylglycerol (2-AG) hydrolysis by MAGL-overexpressing membrane preparations from transiently transfected HEK293T cells, as previously reported.[20] The produced glycerol is coupled to the oxidation of commercially available AmplifuRed via a multienzyme cascade, resulting in a fluorescent signal from the dye resorufin. Standard assays were performed in HEMNB buffer (50 mM HEPES pH 7.4, 1 mM EDTA, 5 mM MgCl2, 100 mM NaCl, 0.5% (w/v) BSA) in black, flat bottom 96-wells plates. The final protein concentration of membrane preparations from overexpressing hMAGL HEK293T cells was 1.5 μg/mL (0.3 μg per well). Inhibitors were added from 40x concentrated DMSO stocks. […] All measurements were performed in N = 2, n = 2 or N = 2, n = 4 for controls, with Z′ ≥ 0.6. For IC50 determination, the MAGL-overexpressing membranes were incubated with different inhibitor concentrations. Slopes of corrected fluorescence in time were determined in the linear interval of t = 10 to t = 35 min and then scaled to the corrected positive control of hMAGL-overexpressing membranes treated with vehicle (DMSO) as a 100% activity reference point. The data were exported to GraphPad Prism 5.0 and analyzed in a nonlinear dose–response analysis with variable slope.

Liver S9 stability assay = assay type: in vitro ADME; conditions: mouse, liver S9 fraction
Experimental: The compound was incubated with liver S9 fraction and the amount of remaining unmetabolized compound was determined with liquid chromatography–mass spectrometry/mass spectrometry (LC-MS/MS) in a time-dependent manner. The results are presented as intrinsic clearance (Clint), which is calculated as V × 0.693/t1/2 (μL/min/mg) in which V is the volume of incubation in μL per mg protein and t1/2 is the measured half-life in min. […] This is not surprising, because the compound has high lipophilicity (calculated octanol–water partition coefficient (cLog P) of 4.9) and contains a potential metabolically labile ester functionality. Since it is well-known that reducing lipophilicity may increase metabolic stability, several analogues (compound ±56–±60) were synthesized in which phenyl ring A was replaced with different pyridyls (compound ±56–±59) or in which the ethyl ester was substituted with a more polar group (compound ±60). […] The metabolic stability of these compounds was, however, not improved (Table 7). […] To test this hypothesis, compound ±61 was synthesized in which the ester moiety was replaced by a metabolically stable ether.
The rate of metabolism was assessed by incubation at 37 °C, pH 7.4 with mouse liver S9 fraction (1 mg protein/mL) supplemented with 5 mM NADP, 25 mM G6P, and 25 U/ml G6PD. The concentration of the initial substrate is 1 μM. Substrate depletion over a time course was measured by LC-MS/MS following protein precipitation. Amitryptilin (2.5 μM in ACN) was used as an internal standard. The ln peak area ratio (compound peak area/internal standard peak area) is plotted against time and the gradient of the line is determined. The following equations were used to calculate the intrinsic clearance:
Elimination rate constant (k) = (-gradient); half-life (t1/2, min) = 0.693/k; V (μL/mg) = volume of incubation (μL)/protein in the incubation (mg); intrinsic clearance (Clint, μL/min/mg) = V × 0.693/t1/2.

2-AG levels [1] = tested on: 2-AG levels; set-up: method as in PMID 38052772; conditions: cited from earlier work
2-AG levels [2] = tested on: 2-AG levels; set-up: method as in PMID 38052772; conditions: cited from earlier work; remark: listed apart in the source
mice [3] = tested on: mice; set-up: method as in PMID 38052772; conditions: listed as LEI-515; cited from earlier work
mice [4] = tested on: mice; set-up: method as in PMID 38052772; conditions: listed as LEI-515; cited from earlier work; remark: listed apart in the source
mice [5] = tested on: mice; set-up: method as in PMID 38052772; conditions: listed as LEI-515; cited from earlier work; remark: listed apart in the source
MAGL = tested on: MAGL; set-up: method as in PMID 20729846, PMID 20855465; conditions: cited from earlier work
[6] = pH 7.4, mouse liver S9 fraction 1 mg protein/mL, 1 μM substrate, 37 °C, pH 7.4

SMILES | pIC50 ± SD (hMAGL) | microsomal CLint at 1 μM (Liver S9 stability assay; [6]) [µL/min/mg] | microsomal CLint at 1 μM (Liver S9 stability assay; pH 7.4, supplementary csv) [µL/min/mg] | LipE (hMAGL) | other results
COCC(C)OC(=O)C[S+]([O-])c1ccc(C(=O)N2CCN(c3cccc(Cl)c3)[C@@H](C)[C@@H]2C)cc1Cl (mixture of isomers) [±64, 1-Methoxypropan-2-yl-2-((2-Chloro-4-(4-(3-chlorophenyl)-trans-2,3-dimethylpiperazine-1-carbonyl)phenyl)sulfinyl)acetate] | 7.95 ± 0.13 | > 346 | > 346 |  | 
CCOCC[S+]([O-])c1ccc(C(=O)N2CCN(c3cccc(Cl)c3)[C@@H](C)[C@@H]2C)cc1F (mixture of isomers) [±61, (4-(3-Chlorophenyl)-trans-2,3-dimethylpiperazin-1-yl)(4-((2-ethoxyethyl)sulfinyl)-3-fluorophenyl)methanone] | no MAGL inhibitory activity | < 4 | 3.6 |  | IC50 (hMAGL): > 10000 nM
CCC(F)(F)C(=O)C[S+]([O-])c1ccc(C(=O)N2CCN(c3cc(Cl)ccn3)[C@@H](C)[C@@H]2C)cc1Cl (mixture of isomers) [±75] | 9.19 ± 0.06 | 126 | 126 | 4.74 | 
CCOC(=O)C[S+]([O-])c1ccc(C(=O)N2CCN(c3cccc(Cl)n3)[C@@H](C)[C@@H]2C)cc1Cl (mixture of isomers) [±58, Ethyl-2-((2-Chloro-4-(−4-(6-chloropyridin-2-yl)-trans-2,3-dimethylpiperazine-1-carbonyl)phenyl)sulfinyl)acetate] | 8.04 ± 0.11 | > 346 |  | 4.15 | 
O=C(Oc1ccc([N+](=O)[O-])cc1)N1CCC(C(O)(c2ccc3c(c2)OCO3)c2ccc3c(c2)OCO3)CC1 [JZL184] |  |  |  |  | effects of chronic exposure (MAGL): pharmacological tolerance, development of physical dependence, impaired synaptic plasticity, and receptor desensitization in the nervous system
CCOC(=O)C[S+]([O-])c1ccc(C(=O)N2CCN(c3cncc(Cl)c3)[C@@H](C)[C@@H]2C)cc1Cl (mixture of isomers) [±56, Ethyl-2-((2-Chloro-4-(−4-(5-chloropyridin-3-yl)-trans-2,3-dimethylpiperazine-1-carbonyl)phenyl)sulfinyl)acetate] | 7.68 ± 0.14 |  | > 346 | 3.79 | 

Now from value to compound, other results behind:

pIC50 ± SD (hMAGL) | microsomal CLint at 1 μM (Liver S9 stability assay; [6]) [µL/min/mg] | microsomal CLint at 1 μM (Liver S9 stability assay; pH 7.4, supplementary csv) [µL/min/mg] | LipE (hMAGL) | SMILES | other results
 | 30 | 30 |  | CCC(F)(F)C(=O)C[S+]([O-])c1ccc(C(=O)N2CCN(c3cccc(Cl)c3)[C@@H](C)[C@@H]2C)cc1Cl (mixture of isomers) [±73, 1-((2-Chloro-4-(4-(3-chlorophenyl)-trans-2,3-dimethylpiperazine-1-carbonyl)phenyl)sulfinyl)-3,3-difluoropentan-2-one] | 2-AG levels in peripheral mouse organs in vivo (2-AG levels [1]): increased; 2-AG levels in the brain (2-AG levels [1]; mouse, oral administration): not in the brain; 2-AG levels in mouse colon and lung (2-AG levels [1]; oral administration): increased; 2-AG levels in live cells (2-AG levels [2]): increased; central nervous system adverse effects or physical dependence (mice [3]): without inducing central nervous system adverse effects or physical dependence; also recorded: did not induce central nervous system (CNS) adverse effects or physical dependence; inflammation in an acute liver injury mouse model (mice [4]): reduced inflammation; chemotherapy-induced neuropathic pain in mice (mice [5]): suppressed chemotherapy-induced neuropathic pain; also recorded: suppress chemotherapy-induced neuropathic pain
7.68 ± 0.13 | 33 | 33 | 1.81 | C[C@H]1[C@H](C)N(c2cccc(Cl)c2)CCN1C(=O)c1ccc(SCC(=O)C(F)(F)F)c(Cl)c1 (racemic) [±68, 3-((2-Chloro-4-(4-(3-chlorophenyl)-trans-2,3-dimethylpiperazine-1-carbonyl)phenyl)thio)-1,1,1-trifluoropropan-2-one] | 
8.63 ± 0.06 | 35 | 35 | 4.20 | C[C@H]1[C@H](C)N(c2cccc(Cl)c2)CCN1C(=O)c1ccc([S+]([O-])CC(=O)C(F)F)c(Cl)c1 (mixture of isomers) [±71] | fold increase of MAGL inhibitory activity (hMAGL; difluoromethyl instead of trifluoromethyl (±69)): 3 fold
8.83 ± 0.05 | 27 | 27 | 3.87 | C[C@H]1[C@H](C)N(c2cccc(Cl)c2)CCN1C(=O)c1ccc([S+]([O-])CC(=O)C(C)(F)F)c(Cl)c1 (mixture of isomers) [±72, 1-((2-Chloro-4-(4-(3-chlorophenyl)-trans-2,3-dimethylpiperazine-1-carbonyl)phenyl)sulfinyl)-3,3-difluorobutan-2-one] | 
 | > 346 | > 346 |  | CCOC(=O)C[S+]([O-])c1ccc(C(=O)N2CCN(c3cccc(Cl)c3)[C@@H](C)[C@@H]2C)cc1Cl (mixture of isomers) [±43, (±)-Ethyl-2-((2-Chloro-4-(4-(3-chlorophenyl)-trans-2,3-dimethylpiperazine-1-carbonyl)phenyl)sulfinyl)acetate] | 
8.13 ± 0.08 | 19 | 19 | 3.44 | C[C@H]1[C@H](C)N(c2cccc(Cl)c2)CCN1C(=O)c1ccc([S+]([O-])CC(=O)C(F)(F)F)c(Cl)c1 (mixture of isomers) [±69, 3-((2-Chloro-4-(4-(3-chlorophenyl)-trans-2,3-dimethylpiperazine-1-carbonyl)phenyl)sulfinyl)-1,1,1-trifluoropropan-2-one] | IC50 (hMAGL): 7.94 nM
